Patent publication US10017507B2, “Diaza-benzofluoranthrene compounds” (HARBIN PHARMACEUTICAL GROUP CO., LTD. GENERAL …, priority 2015, dated 2018)

target: T1, PDE1A (Homo sapiens, UniProt P54750); assay: In vitro detection of phosphodiesterase (PDE): PDE1A enzyme activity by fluorescence polarization immunoassay; type: biochemical; conditions: human-derived enzyme, cAMP or cGMP substrate; read-out: IC50s for PDE1
T1 construct: purchased SignalChem
Protocol: Test 1: In Vitro Detection of Phosphodiesterase (PDE)
the enzyme activity of PDE1A was determined by detecting the production of AMP/GMP by fluorescence polarization immunoassay, wherein AlexaFluor 633 labeled AMP/GMP was used to replace AMP/GMP to bind with the antibody.
Reaction buffer: 10 mM Tris-HCl, pH 7.5, 5 mM magnesium chloride, 0.01% Brij 35, 1 mM DTT and 1% DMSO;
Enzyme substrate: […] cAMP or cGMP (Ca^2+-calmodulin acts as a cofactor of PDE1A)
Detection reagent: Transcreener® AMP2/GMP2 antibody; AMP2/GMP2 AlexaFluor 633 tracer.
Experimental Procedure and Method:
1. Human-derived enzyme (commercially available from SignalChem) to be tested and substrate were diluted with freshly prepared reaction buffer;
2. The enzyme solution (with a concentration of 3 pM) was added to the holes of the microplates;
3. A series of solutions of the compounds in 100% DMSO (with the desired concentrations) were added to the holes containing the enzyme solution by Echo550, and then the microplates were incubated for 10 minutes at room temperature;
4. The substrate solution was added to the holes containing the enzyme and compounds to start the reaction;
5. The microplates were incubated for 1 hour under room temperature and vibration;
6. The detection mixture (tracer and antibody in stop buffer) was added to stop the enzyme reaction, and the microplates were incubated for 90 minutes under vibration;
7. The equipment EnVision (PerkinElmer), Cy5 FP Ex FP 620, Em S-pol 688/P-pol 688, FP mirror D658fp/D688 was used to detect the reaction mixture, and Ex/Em 620/688 was used to detect the fluorescence polarization.
In the Excel table, the enzyme activity corresponding to the FP signal was found on the AMP/GMP standard curve by reference to the DMSO negative control, and then was converted to product concentration (nM). GraphPad Prism was used to analyze and calculate the IC50 values.

“(4^1S,13aS)-13a-ethyl-N-(3-methoxylpropyl)-12-(3-methyl-1,2,4-oxadiazol-5-yl)-2,3,4^1,5,6,13a-hexahydro-1H-indolo[3,2,1-de]pyrido[3,2,1-ij][1,5]naphthyridin-8-sulfonamide [Example 81]” and `CC[C@@]12C=C(/C=C/C(N)=O)n3c4c(c5ccccc53)CCN(CCC1)[C@H]42` [Example 7, (E)-3-((4^1S,13aS)-13a-ethyl-2,3,4^1,5,6,13a-hexahydro-1H-indolo[3,2,1-de]pyrido[3,2,1-ij][1,5]naphthyridin-12-yl)acrylamide] fall in the same range of IC50: 20 to 100 µM for the first, 20 to 100 µM for the second.

First: CC[C@@]12C=C(c3nc(C)no3)n3c4c(c5cc(S(=O)(=O)N(C)C)ccc53)CCN(CCC1)[C@H]42 [Example 80, (4^1S,13aS)-13a-ethyl-N,N-dimethyl-12-(3-methyl-1,2,4-oxadiazol-5-yl)-2,3,4^1,5,6,13a-hexahydro-1H-indolo[3,2,1-de]pyrido[3,2,1-ij][1,5]naphthyridin-8-sulfonamide]
Second: CC[C@@]12C=C(c3nc(C)c(OC)o3)n3c4c(c5ccccc53)CCN(CCC1)[C@H]42 [Example 41, 2-((4^1S,13aS)-13a-ethyl-2,3,4^1,5,6,13a-hexahydro-1H-indolo[3,2,1-de]pyrido[3,2,1-ij][1,5]naphthyridin-12-yl)-5-methoxy-4-methyloxazole]
The IC50 of the first is higher: 20 to 100 µM for the first, no more than 1 µM for the second.

Compared with `CC[C@@]12C=C(c3nc(C)c(C)o3)n3c4c(c5c(S(=O)(=O)NCCCOC)cccc53)CCN(CCC1)[C@H]42` [Example 75, (4^1S,13aS)-12-(4,5-dimethyloxazol-2-yl)-13a-ethyl-N-(3-methoxylpropyl)-2,3,4^1,5,6,13a-hexahydro-1H-indolo[3,2,1-de]pyrido[3,2,1-ij][1,5]naphthyridin-7-sulfonamide], `CC[C@@]12C=C(c3nc(C)c(N4CCOCC4)o3)n3c4c(c5ccccc53)CCN(CCC1)[C@H]42` [Example 67, 4-(2-((4^1S,13aS)-13a-ethyl-2,3,4^1,5,6,13a-hexahydro-1H-indolo[3,2,1-de]pyrido[3,2,1-ij][1,5]naphthyridin-12-yl)-4-methyloxazol-5-yl)morpholine] is lower in IC50: 20 to 100 µM for the first, no more than 1 µM for the second. The second is the more potent here.

First: CC[C@@]12C=C(c3ccc(C)nn3)n3c4c(c5ccccc53)CCN(CCC1)[C@H]42 [Example 9, (4^1S,13aS)-13a-ethyl-12-(6-methylpyridazin-3-yl)-2,3,4^1,5,6,13a-hexahydro-1H-indolo[3,2,1-de]pyrido[3,2,1-ij][1,5]naphthyridine]
Second: CC[C@@]12C=C(c3noc(=O)[nH]3)n3c4c(c5ccccc53)CCN(CCC1)[C@H]42 [Example 18, 3-((4^1S,13aS)-13a-ethyl-2,3,4^1,5,6,13a-hexahydro-1H-indolo[3,2,1-de]pyrido[3,2,1-ij][1,5]naphthyridin-12-yl)-1,2,4-oxadiazol-5 (4H)-one]
The IC50 of the first is lower: 1 to 20 µM for the first, greater than 100 µM for the second.

`CC[C@@]12C=C(c3nc(C)c(C(=O)N(C)C)o3)n3c4c(c5ccccc53)CCN(CCC1)[C@H]42` [Example 65, 2-((4^1S,13aS)-13a-ethyl-2,3,4^1,5,6,13a-hexahydro-1H-indolo[3,2,1-de]pyrido[3,2,1-ij][1,5]naphthyridin-12-yl)-N,N,4-trimethyloxazole-5-carboxamide] and `CC[C@@]12C=C(c3nc(C)c(C)o3)n3c4c(c5ccc(S(=O)(=O)N(C)C)cc53)CCN(CCC1)[C@H]42` [Example 69, (4^1S,13aS)-12-(4,5-dimethyloxazol-2-yl)-13a-ethyl-N,N-dimethyl-2,3,4^1,5,6,13a-hexahydro-1H-indolo[3,2,1-de]pyrido[3,2,1-ij][1,5]naphthyridin-9-sulfonamide] cannot be ordered by IC50: no more than 1 µM for the first, 1 to 20 µM for the second.

First: CC[C@@]12C=C(c3cn4ccc(C(F)(F)F)cc4n3)n3c4c(c5ccccc53)CCN(CCC1)[C@H]42 [Example 44, (4^1S,13aS)-13a-ethyl-12(7-(trifluoromethyl)imidazo[1,2-a]pyridin-2-yl)-2,3,4^1,5,6,13a-hexahydro-1H-indolo[3,2,1-de]pyrido[3,2,1-ij][1,5]naphthyridine]
Second: CC[C@@]12C=C(c3cccc(C)n3)n3c4c(c5ccccc53)CCN(CCC1)[C@H]42 [Example 12, (4^1S,13aS)-13a-ethyl-12-(6-methylpyridin-2-yl)-2,3,4^1,5,6,13a-hexahydro-1H-indolo[3,2,1-de]pyrido[3,2,1-ij][1,5]naphthyridine]
The IC50 of the first is higher: 20 to 100 µM for the first, 1 to 20 µM for the second.

Compared with `CC[C@@]12C=C(c3nc(C(C)(C)O)no3)n3c4c(c5ccccc53)CCN(CCC1)[C@H]42` [Example 37, 2-(5-((4^1S,13aS)-13a-ethyl-2,3,4^1,5,6,13a-hexahydro-1H-indolo[3,2,1-de]pyrido[3,2,1-ij][1,5]naphthyridin-12-yl)-1,2,4-oxadiazol-3-yl)-propan-2-ol], `CC[C@@]12C=C(c3nsc(=O)[nH]3)n3c4c(c5ccccc53)CCN(CCC1)[C@H]42` [Example 19, 3-((4^1S,13aS)-13a-ethyl-2,3,4^1,5,6,13a-hexahydro-1H-indolo[3,2,1-de]pyrido[3,2,1-ij][1,5]naphthyridin-12-yl)-1,2,4-thiadiazol-5(4H)-one] is higher in IC50: 1 to 20 µM for the first, greater than 100 µM for the second.

Compared with `CC[C@@]12C=C(c3noc(-c4ccc(F)cc4)n3)n3c4c(c5ccccc53)CCN(CCC1)[C@H]42` [Example 27, 3-((4^1S,13aS)-13a-ethyl-2,3,4^1,5,6,13a-hexahydro-1H-indolo[3,2,1-de]pyrido[3,2,1-ij][1,5]naphthyridin-12-yl)-5-(4-fluorophenyl)-1,2,4-oxadiazole], `CC[C@@]12C=C(c3nc(C)no3)n3c4c(c5ccc(S(=O)(=O)NC)cc53)CCN(CCC1)[C@H]42` [Example 76, (4^1S,13aS)-13a-ethyl-N-methyl-12-(3-methyl-1,2,4-oxadiazol-5-yl)-2,3,4^1,5,6,13a-hexahydro-1H-indolo[3,2,1-de]pyrido[3,2,1-ij][1,5]naphthyridin-9-sulfonamide] is lower in IC50: greater than 100 µM for the first, 1 to 20 µM for the second.

First: CC[C@@]12C=C(c3ccccn3)n3c4c(c5ccccc53)CCN(CCC1)[C@H]42 [Example 11, (4^1S,13aS)-13a-ethyl-12-(pyridin-2-yl)-2,3,4^1,5,6,13a-hexahydro-1H-indolo[3,2,1-de]pyrid o[3,2,1-ij][1,5]naphthyridine]
Second: CC[C@@]12C=C(c3nc(C)c(C)o3)n3c4c(c5ccc(S(=O)(=O)NCCCOC)cc53)CCN(CCC1)[C@H]42 [Example 70, (4^1S,13aS)-12-(4,5-dimethyloxazol-2-yl)-13a-ethyl-N-(3-methoxylpropyl)-2,3,4^1,5,6,13a-hexahydro-1H-indolo[3,2,1-de]pyrido[3,2,1-ij][1,5]naphthyridin-9-sulfonamide]
The IC50 of the first is higher: 20 to 100 µM for the first, no more than 1 µM for the second. The second is the more potent here.

First: CC[C@@]12C=C(c3nc(C)c(C)o3)n3c4c(c5cc(S(=O)(=O)N(C)C)ccc53)CCN(CCC1)[C@H]42 [Example 71, (4^1S,13aS)-12-(4,5-dimethyloxazol-2-yl)-13a-ethyl-N,N-dimethyl-2,3,4^1,5,6,13a-hexahydro-1H-indolo[3,2,1-de]pyrido[3,2,1-ij][1,5]naphthyridin-8-sulfonamide]
Second: CC[C@@]12C=C(c3noc(-c4ccncc4)n3)n3c4c(c5ccccc53)CCN(CCC1)[C@H]42 [Example 24, 3-((4^1S,13aS)-13a-ethyl-2,3,4^1,5,6,13a-hexahydro-1H-indolo[3,2,1-de]pyrido[3,2,1-ij][1,5]naphthyridin-12-yl)-5-(pyridin-4-yl)-1,2,4-oxadiazole]
The IC50 of the first is lower: 1 to 20 µM for the first, 20 to 100 µM for the second.

First: CC[C@@]12C=C(c3nccc(C)n3)n3c4c(c5ccccc53)CCN(CCC1)[C@H]42 [Example 8, (4^1S,13aS)-13a-ethyl-12-(4-methylpyrimidin-2-yl)-2,3,4^1,5,6,13a-hexahydro-1H-indolo[3,2,1-de]pyrido[3,2,1-ij][1,5]naphthyridine]
Second: CCc1oc(C2=C[C@]3(CC)CCCN4CCc5c(n2c2ccccc52)[C@@H]43)nc1C [Example 53, 5-ethyl-2-((4^1S,13aS)-13a-ethyl-2,3,4^1,5,6,13a-hexahydro-1H-indolo[3,2,1-de]pyrido[3,2,1-ij][1,5]naphthyridin-12-yl)-4-methyloxazole]
The IC50 of the first is higher: 20 to 100 µM for the first, no more than 1 µM for the second.

Compared with “(4^1S,13aS)-13a-ethyl-N-(3-methoxylpropyl)-12-(3-methyl-1,2,4-oxadiazol-5-yl)-2,3,4^1,5,6,13a-hexahydro-1H-indolo[3,2,1-de]pyrido[3,2,1-ij][1,5]naphthyridin-9-sulfonamide [Example 78]”, `CC[C@@]12C=C(c3nc(C)c(C(=O)OC)o3)n3c4c(c5ccccc53)CCN(CCC1)[C@H]42` [Example 59, Methyl-2-((4^1S,13aS)-13a-ethyl-2,3,4^1,5,6,13a-hexahydro-1H-indolo[3,2,1-de]pyrido[3,2,1-ij][1,5]naphthyridin-12-yl)-4-methyloxazole-5-carbonate] is lower in IC50: 20 to 100 µM for the first, no more than 1 µM for the second. The second is the more potent here.

“(4^1S,13aS)-13a-ethyl-12-(1-methyl-1H-pyrazol-3-yl)-2,3,4^1,5,6,13a-hexahydro-1H-indolo[3,2,1-de]pyrido[3,2,1-ij][1,5]naphthyridine, and (4^1S,13aS)-13a-ethyl-12-(1-methyl-1H-pyrazol-5-yl)-2,3,4^1,5,6,13a-hexahydro-1H-indolo[3,2,1-de]pyrido[3,2,1-ij][1,5]naphthyridine [Example 46]” showed an IC50 of 20 to 100 µM.
